PubChem BioAssay AID256 (DTP/NCI, 2004)
Several values for one entry are separate records, joined by “and”; a condition that tells them apart may be missing. Equal entries are not always repeated. Toxic doses and inconclusive results are not listed. The calls were made as follows: active = survival T/C of 150% or more; inactive = T/C below 125% in these data.

Test system: CD2F1 mice, L1210 leukemia ip, survival T/C
Assay: NCI In Vivo Anticancer Drug Screen. Data for tumor model L1210 Leukemia (intraperitoneal) in CD2F1 (CDF1) mice
Details: higher = longer survival
In short: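 Antitumor effect is scored in animals hosting a serially transplanted tumor. Values compare compound-dosed animals against vehicle-only controls as a simple quotient.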

[1] = endpoint: mean survival time, dose: 100.0 mg/kg/injection, schedule: Q01DX001 (ip), vehicle: saline with Tween-80
[2] = endpoint: mean survival time, dose: 200.0 mg/kg/injection, schedule: Q01DX001 (ip), vehicle: saline with Tween-80
[3] = endpoint: mean survival time, dose: 400.0 mg/kg/injection, schedule: Q01DX001 (ip), vehicle: saline with Tween-80
[4] = endpoint: mean survival time, dose: 100.0 mg/kg/injection, schedule: Q04DX003 (ip), vehicle: saline with Tween-80
[5] = endpoint: mean survival time, dose: 200.0 mg/kg/injection, schedule: Q04DX003 (ip), vehicle: saline with Tween-80
[6] = endpoint: mean survival time, dose: 12.5 mg/kg/injection, schedule: Q01DX009 (ip), vehicle: saline with Tween-80
[7] = endpoint: mean survival time, dose: 25.0 mg/kg/injection, schedule: Q01DX009 (ip), vehicle: saline with Tween-80
[8] = endpoint: mean survival time, dose: 50.0 mg/kg/injection, schedule: Q01DX009 (ip), vehicle: saline with Tween-80
[9] = endpoint: mean survival time, dose: 100.0 mg/kg/injection, schedule: Q01DX009 (ip), vehicle: saline with Tween-80
[10] = endpoint: mean survival time, dose: 200.0 mg/kg/injection, schedule: Q01DX009 (ip), vehicle: saline with Tween-80
[11] = endpoint: mean survival time, dose: 100.0 mg/kg/injection, schedule: Q04DX003 (ip), vehicle: saline
[12] = endpoint: mean survival time, dose: 200.0 mg/kg/injection, schedule: Q04DX003 (ip), vehicle: saline
[13] = endpoint: mean survival time, dose: 400.0 mg/kg/injection, schedule: Q04DX003 (ip), vehicle: saline
[14] = endpoint: mean survival time, dose: 400.0 mg/kg/injection, schedule: Q04DX003 (ip), vehicle: saline with Tween-80
[15] = endpoint: mean survival time, dose: 400.0 mg/kg/injection, schedule: Q01DX009 (ip), vehicle: saline with Tween-80

Measured: T/C

N#CCCN1c2ccccc2Sc2ccccc21
inactive: endpoint: mean survival time, dose: 75.0 mg/kg/injection, schedule: Q04DX003 (ip), vehicle: saline 102 % of control | endpoint: mean survival time, dose: 150.0 mg/kg/injection, schedule: Q04DX003 (ip), vehicle: saline 112 % of control

O=C1OC(C(Cl)(Cl)Cl)OC1C(Cl)(Cl)Cl (centres undefined)
inactive: [1] 97 % of control

N#C/C(=C/c1ccc(Cl)cc1)C(N)=O
inactive: endpoint: mean survival time, dose: 12.5 mg/kg/injection, schedule: Q04DX003 (ip), vehicle: Klucel (hydroxypropylcellulose) (HPC) 96 % of control and 98 % of control | endpoint: mean survival time, dose: 25.0 mg/kg/injection, schedule: Q04DX003 (ip), vehicle: Klucel (hydroxypropylcellulose) (HPC) 93 % of control and 95 % of control | endpoint: mean survival time, dose: 50.0 mg/kg/injection, schedule: Q04DX003 (ip), vehicle: Klucel (hydroxypropylcellulose) (HPC) 100 % of control and 104 % of control | [1] 121 % of control | endpoint: mean survival time, dose: 100.0 mg/kg/injection, schedule: Q04DX003 (ip), vehicle: Klucel (hydroxypropylcellulose) (HPC) 100 % of control and 101 % of control | [2] 111 % of control | [3] 101 % of control

O=C(CCCN1CCC(C(O)c2ccc(F)cc2)CC1)c1ccc(F)cc1 (centres undefined)
inactive: endpoint: median survival time, dose: 6.25 mg/kg/injection, schedule: Q01DX009 (ip), vehicle: saline with Tween-80 103 % of control and 109 % of control and 112 % of control | endpoint: median survival time, dose: 6.25 mg/kg/injection, schedule: Q06HX014 (oral), vehicle: saline with Tween-80 104 % of control | endpoint: median survival time, dose: 12.5 mg/kg/injection, schedule: Q01DX009 (ip), vehicle: saline with Tween-80 120 % of control and 108 % of control | endpoint: median survival time, dose: 12.5 mg/kg/injection, schedule: Q01DX009 (oral), vehicle: saline with Tween-80 111 % of control | endpoint: median survival time, dose: 12.5 mg/kg/injection, schedule: Q06HX014 (oral), vehicle: saline with Tween-80 105 % of control | endpoint: median survival time, dose: 25.0 mg/kg/injection, schedule: Q01DX009 (ip), vehicle: saline with Tween-80 121 % of control | endpoint: median survival time, dose: 25.0 mg/kg/injection, schedule: Q01DX009 (oral), vehicle: saline with Tween-80 105 % of control | endpoint: median survival time, dose: 25.0 mg/kg/injection, schedule: Q04DX003 (oral), vehicle: saline with Tween-80 102 % of control | endpoint: median survival time, dose: 25.0 mg/kg/injection, schedule: Q06HX014 (oral), vehicle: saline with Tween-80 105 % of control | endpoint: median survival time, dose: 29.7 mg/kg/injection, schedule: Q01DX009 (oral), vehicle: saline with Tween-80 109 % of control | endpoint: median survival time, dose: 44.5 mg/kg/injection, schedule: Q01DX009 (oral), vehicle: saline with Tween-80 111 % of control | endpoint: median survival time, dose: 50.0 mg/kg/injection, schedule: Q01DX009 (ip), vehicle: saline with Tween-80 123 % of control and 124 % of control | endpoint: median survival time, dose: 50.0 mg/kg/injection, schedule: Q01DX009 (oral), vehicle: saline with Tween-80 115 % of control | endpoint: median survival time, dose: 50.0 mg/kg/injection, schedule: Q04DX003 (oral), vehicle: saline with Tween-80 112 % of control | endpoint: median survival time, dose: 50.0 mg/kg/injection, schedule: Q06HX014 (oral), vehicle: saline with Tween-80 113 % of control | endpoint: median survival time, dose: 66.7 mg/kg/injection, schedule: Q01DX009 (oral), vehicle: saline with Tween-80 118 % of control | endpoint: median survival time, dose: 100.0 mg/kg/injection, schedule: Q01DX009 (ip), vehicle: saline with Tween-80 118 % of control | endpoint: median survival time, dose: 100.0 mg/kg/injection, schedule: Q01DX009 (oral), vehicle: saline with Tween-80 118 % of control | endpoint: median survival time, dose: 100.0 mg/kg/injection, schedule: Q04DX003 (oral), vehicle: saline with Tween-80 111 % of control | endpoint: median survival time, dose: 200.0 mg/kg/injection, schedule: Q04DX003 (oral), vehicle: saline with Tween-80 115 % of control

O=C(O)c1c[nH]c2ccc([N+](=O)[O-])cc2c1=O
inactive: endpoint: mean survival time, dose: 50.0 mg/kg/injection, schedule: Q01DX001 (ip), vehicle: Klucel (hydroxypropylcellulose) (HPC) 104 % of control | endpoint: mean survival time, dose: 100.0 mg/kg/injection, schedule: Q01DX001 (ip), vehicle: Klucel (hydroxypropylcellulose) (HPC) 120 % of control | [1] 93 % of control | [2] 89 % of control | [3] 86 % of control

CN1CCCCCC1
inactive: [4] 100 % of control | [5] 111 % of control

c1cnc2ncncc2n1
inactive: [6] 94 % of control and 102 % of control | [7] 94 % of control and 102 % of control | [8] 105 % of control and 106 % of control | [9] 94 % of control and 104 % of control | [10] 96 % of control and 110 % of control

CC1(C(=O)O)CCCC2(C)c3cc(O)ccc3CCC12 (centres undefined)
inactive: endpoint: mean survival time, dose: 50.0 mg/kg/injection, schedule: Q01DX009 (ip), vehicle: Klucel (hydroxypropylcellulose) (HPC) 94 % of control | endpoint: mean survival time, dose: 100.0 mg/kg/injection, schedule: Q01DX009 (ip), vehicle: Klucel (hydroxypropylcellulose) (HPC) 90 % of control

CN(C)C(=O)Sc1c(S(=O)(=O)F)ccc(Cl)c1Cl
inactive: endpoint: mean survival time, dose: 100.0 mg/kg/injection, schedule: Q04DX002 (ip), vehicle: saline with Tween-80 96 % of control | endpoint: mean survival time, dose: 200.0 mg/kg/injection, schedule: Q04DX002 (ip), vehicle: saline with Tween-80 96 % of control | endpoint: mean survival time, dose: 400.0 mg/kg/injection, schedule: Q04DX002 (ip), vehicle: saline with Tween-80 100 % of control

O=c1ccccn1CC(O)S(=O)(=O)O (centres undefined)
inactive: [11] 95 % of control | [12] 92 % of control | [13] 100 % of control

N=C(N)SCc1ccccc1Cl
inactive: endpoint: mean survival time, dose: 1.56 mg/kg/injection, schedule: Q01DX009 (ip), vehicle: saline 101 % of control | endpoint: mean survival time, dose: 3.13 mg/kg/injection, schedule: Q01DX009 (ip), vehicle: saline 101 % of control | endpoint: mean survival time, dose: 6.25 mg/kg/injection, schedule: Q01DX009 (ip), vehicle: saline 101 % of control

COC(=O)C(NC(C)=O)C(O)Cl (centres undefined)
inactive: [11] 102 % of control | [12] 100 % of control | [13] 98 % of control

CC(CO)CCC(=O)C(C)C1CC2(C)CCC3C(CCC4CC(O)CCC43C)C2C12SCCS2 (centres undefined)
inactive: [4] 98 % of control | [5] 102 % of control | [14] 98 % of control

O=c1[nH]c(=O)n(C2OC(CO)C(O)C2O)nc1SCc1ccccc1 (centres undefined)
inactive: endpoint: mean survival time, dose: 12.5 mg/kg/injection, schedule: Q01DX005 (ip), vehicle: distilled water + Tween-80 100 % of control | endpoint: mean survival time, dose: 25.0 mg/kg/injection, schedule: Q01DX005 (ip), vehicle: distilled water + Tween-80 97 % of control | endpoint: mean survival time, dose: 50.0 mg/kg/injection, schedule: Q01DX005 (ip), vehicle: distilled water + Tween-80 101 % of control | endpoint: mean survival time, dose: 100.0 mg/kg/injection, schedule: Q01DX005 (ip), vehicle: distilled water + Tween-80 97 % of control | endpoint: mean survival time, dose: 200.0 mg/kg/injection, schedule: Q01DX005 (ip), vehicle: distilled water + Tween-80 97 % of control

COC1=CC(=O)c2ccccc2C1=O
inactive: [4] 91 % of control | [5] 87 % of control

O=S(=O)(c1ccccc1)N1CN2CCN(C2)C1
inactive: [6] 95 % of control and 110 % of control | [7] 97 % of control and 100 % of control | [8] 102 % of control and 106 % of control | [9] 101 % of control and 111 % of control | [10] 117 % of control and 107 % of control | [15] 117 % of control and 105 % of control

CCc1ccc(C#N)cc1O
inactive: [9] 102 % of control | [4] 96 % of control | [10] 98 % of control | [5] 100 % of control | [15] 96 % of control | [14] 100 % of control

O=C(OC(CN1CCCCC1)CN1CCCc2ccccc21)C(O)C(O)C(O)(CO)C(=O)OC(CN1CCCCC1)CN1CCCc2ccccc21 (centres undefined)
inactive: [4] 95 % of control | [5] 91 % of control

O=C(O)C1(c2ccccc2)OCCO1
inactive: [11] 103 % of control | [12] 103 % of control | [13] 97 % of control

CC(=O)c1ccc(N=Nc2c(N)nc(N)nc2N)cc1
inactive: [9] 92 % of control | [4] 89 % of control | [10] 97 % of control | [5] 87 % of control | [15] 98 % of control | [14] 89 % of control
